One compound from ChEMBL document CHEMBL2069281, “2-Phenylamino-6-cyano-1H-benzimidazole-based isoform selective casein kinase 1 gamma (CK1γ) inhibitors” (Bioorg Med Chem Lett, 2012) can be followed below.

The nature of this series: Clearance in rat at […], iv. Further details: dose 0.58 mg/kg, route intravenous. Particulars: in vivo. The format is ADME, organism-based.

Compound `CC(C)(C)c1ccc(Nc2nc3ccc(C#N)cc3[nH]2)cc1` gave a clearance of 108 mL/min/kg.

By clearance is commonly meant a measure of how efficiently the substance is removed, as volume per time. A lower clearance goes with inefficient removal.
